In test [1] the test system is M. tuberculosis Erdman strain. Description: broth microdilution in 7H9 broth, 96 well plates, M. tuberculosis growth after 1 week of incubation. The format is cell-based. The note with it: one week of incubation. A general note: In broth dilution the organism is exposed to a series of concentrations in liquid medium.
The subject of another test is M. tuberculosis H37Rv. Briefly: minimum inhibitory concentration (MIC) in 7H9 medium at 37° C. The note with it: for effect of addition of clavulanate on the MIC value: absence vs presence of 2.5 μg ml^−1 clavulanate, data not shown. Type of test: cell-based.
A further test deals with BlaC (Mycobacterium tuberculosis, UniProt P9WKD3). Briefly: rate of hydrolysis by BlaC. The format is biochemical, M. tuberculosis.
Chain of BlaC (P9WKD3 35-307): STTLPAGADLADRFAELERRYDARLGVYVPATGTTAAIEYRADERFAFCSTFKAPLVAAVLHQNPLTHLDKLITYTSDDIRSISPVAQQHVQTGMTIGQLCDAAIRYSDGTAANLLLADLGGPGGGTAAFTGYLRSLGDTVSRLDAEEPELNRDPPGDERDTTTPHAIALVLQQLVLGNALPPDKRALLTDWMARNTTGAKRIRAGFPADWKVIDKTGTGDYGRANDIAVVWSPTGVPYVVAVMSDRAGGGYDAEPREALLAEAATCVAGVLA
For test [2], the system named is M. tuberculosis in viable but nonreplicative (NRP) state. Description: Wayne model, nonreplicative (NRP2) cultures, viability by intracellular ATP and CFUs. Type of test: cell-based. The conditions noted are these: for reduction of viability (intracellular ATP, CFUs): combination with clavulanate, anaerobic chamber, 1 week and 2 weeks, data not shown; for kill over a 2-week exposure time: meropenem in combination with clavulanate, metronidazole as control compound.

Test [3] deals with M. tuberculosis Erdman strain. Briefly: MIC against Erdman strain. The note with it: Mycobacterium tuberculosis, read-out: MIC value. Type of test: cell-based.
[4] abbreviates: at any concentration of clavulanate (0.0.5, 1 and 2 μg/ml).

From patent US20110190253A1, “METHOD FOR TREATING TUBERCULOSIS” (priority 2008, published 2011) come the findings set out here.

SMILES strings stand for the structures.

As for `C[C@@H](O)[C@H]1C(=O)N2C(C(=O)O)=C(S[C@@H]3CN[C@H](C(=O)N(C)C)C3)[C@H](C)[C@H]12` [meropenem], the M. tuberculosis growth entry in test [1] (1 μg/ml meropenem in combination with 1 μg/ml clavulanate) is “No M. tuberculosis growth”. Further, the “MIC value in the presence of clavulanate” value in the test on M. tuberculosis H37Rv (7H9 medium, 37° C., 2.5 μg ml^−1 clavulanate) was 0.32 µg/mL. Also, the MIC in the test with M. tuberculosis H37Rv (Mycobacterium tuberculosis, with clavulanate, as restated) was at most 1 µg/mL. The “rate of hydrolysis by BlaC” value on BlaC is “low”. In addition, in test [2], the “reduction of viability (intracellular ATP, CFUs)” value (“reduction of viability” below) is “more pronounced” and the “kill over a 2-week exposure time” value is “more than a log kill”. For the same compound, the MIC in test [3] was at most 1 µg/mL.
With `CC1(C)S[C@@H]2[C@H](NC(=O)[C@H](N)c3ccccc3)C(=O)N2[C@H]1C(=O)O` [ampicillin], in the test with M. tuberculosis H37Rv, the “effect of addition of clavulanate on the MIC value” is reported as “only a modest effect”.
On to `CCN1CCN(C(=O)N[C@@H](C(=O)N[C@@H]2C(=O)N3[C@@H]2SC(C)(C)[C@@H]3C(=O)O)c2ccccc2)C(=O)C1=O` [piperacillin], for which the “inhibition of M. tuberculosis growth” value in test [1] (setting [4]) is recorded as “no inhibition”.
With `CO/N=C(\C(=O)N[C@@H]1C(=O)N2C(C(=O)O)=C(COC(N)=O)CS[C@H]12)c1ccco1` [cefuroxime], in test [1] (2 μg/ml cefuroxime and 2 μg/ml clavulanate), the “inhibition of M. tuberculosis growth” value was “Modest inhibition”. Also, the “reduction of viability” value in test [2] is reported as “effective in reducing viability”.
For the compound `CC1(C)S[C@@H]2[C@H](NC(=O)[C@H](N)c3ccc(O)cc3)C(=O)N2[C@H]1C(=O)O` [amoxicillin], in test [1] (4 μg/ml of amoxicillin and 1-2 μg/ml clavulanate), the “inhibition of M. tuberculosis growth” value is listed as “Modest inhibition”. In addition, in the test on M. tuberculosis H37Rv, the “effect of addition of clavulanate on the MIC value” is given as “only a modest effect”. Further, in test [2], the “reduction of viability” value was “effective in reducing viability”.
For the compound `Cc1ncc([N+](=O)[O-])n1CCO` [metronidazole], in test [2], the “kill over a 2-week exposure time” value was “comparable”.
Take `CC(C)(O/N=C(\C(=O)N[C@@H]1C(=O)N2C(C(=O)[O-])=C(C[n+]3ccccc3)CS[C@H]12)c1csc(N)n1)C(=O)O` [ceftazidime]: the “inhibition of M. tuberculosis growth” value in test [1] (setting [4]) is “no inhibition”.

The MIC is the least concentration at which growth counts as inhibited.
